Legend:
BRD4BD1 = BRD4BD1 (Homo sapiens, UniProt O60885); experiment: BRD4 AlphaScreen competition assay (JQ1-biotin displacement), BRD4BD1; format: binding; conditions: read-out: IC50 BRD4BD1
[1] = target: T1, BRD4BD2-DCAF16 ternary complex (Homo sapiens, UniProt O60885+Q9NXF7); experiment: DDB1-DCAF16-BRD4BD2 TR-FRET ternary complex formation assay; format: biochemical; conditions: for TR-FRETmax (520 nm/490 nm ratio): 6 h degrader incubation; for incubation time of saturation / maximum TR-FRET signal: measured at 1, 2, 4, 6 and 24 h
T1 construct: E3 ligase to bromodomain 2 (BRD4BD2); His6 (N); StrepII (N); Avi (N); made in house; host or cells: BRD4BD2: E. coli (pET100/D-TOPO)
T1 sequence (Q9NXF7 whole entry, other chains not shown): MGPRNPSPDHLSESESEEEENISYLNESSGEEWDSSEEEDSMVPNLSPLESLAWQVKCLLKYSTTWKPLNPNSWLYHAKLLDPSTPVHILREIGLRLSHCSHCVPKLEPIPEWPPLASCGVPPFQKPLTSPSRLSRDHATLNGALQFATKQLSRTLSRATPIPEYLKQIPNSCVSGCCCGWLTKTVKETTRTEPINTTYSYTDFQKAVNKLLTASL
Text: To determine the relationship between covalent warheads and DCAF16 recruitment to BRD4BD2, we used a time-resolved fluorescence energy transfer (TR-FRET) assay to measure induced BRD4BD2-DCAF16 ternary complex formation (Fig. 3A).
Furthermore, we wanted to determine the kinetics of the BRD4BD2-DCAF16 interaction given its covalent nature. […] Additionally, to understand the relationship between ternary complex formation kinetics and warhead reactivity we measured the depletion of the covalent analogs in the presence of glutathione using MS (Table S2). […] Titrations of compounds to induce the DCAF16-BRD4BD complex were carried out by mixing 100 nM biotinylated BRD4BD2, 500 nM BODIPY-FL labeled DDB1ΔB-DCAF16 variants, and 2 nM terbium-coupled streptavidin (Invitrogen) in an assay buffer containing 50 mM HEPES pH 8.0, 200 mM NaCl, 0.1% Pluronic F-68 solution (Sigma), 0.5% bovine serum albumin (BSA) (w/v) and 1 mM TCEP. […] The TR-FRET signal of each data point was extracted by calculating the 520/490 nm ratio.

glutathione = experiment: GSH stability (glutathione reactivity) assay by LC-MS/MS; format: physicochemical; conditions: PBS containing 5 mM reduced glutathione; PBS + 5 mM GSH; extrapolated from 240 min assay
Text: Furthermore, we wanted to determine the kinetics of the BRD4BD2-DCAF16 interaction given its covalent nature. […] Additionally, to understand the relationship between ternary complex formation kinetics and warhead reactivity we measured the depletion of the covalent analogs in the presence of glutathione using MS (Table S2). […].

BRD4BD2 [2] = target: T2, BRD4BD2 (Homo sapiens, UniProt O60885); experiment: BRD4BD2-eGFP and mCherry flow reporter degradation assay, wild type K562 cells; conditions: for increase in degradation potency in comparison to GNE011: BRD4BD2 reporter, 16 h; for Dmax: K562, read-out: maximal degradation (Dmax/16h) of BRD4BD2, K562 cells, 16 h incubation; for DC50: read-out: DC50 of BRD4BD2 degradation
Text: This assay involves the co-expression of mCherry with BRD4BD1/2 fused to an enhanced green fluorescent protein (eGFP) tag, and the subsequent fluorescence measurement of BRD4BD1/2-eGFP normalized to mCherry as a readout for BRD4BD1/2 degradation. It allows for a quantitative, rapid, and facile screening of several MGDs, in a dose-and time-dependent manner. […] Thus, the BRD4BD2 stability system was used to test all subsequent GNE011 analogs in wild type and DCAF16−/− cells.
One day after infection, reporter cells were selected with puromycin at a concentration of 2 μg/mL.
(§5) K562 cells stably expressing degradation reporter were dosed with DMSO or degraders at various times and concentrations using D300e Digital Dispenser (HP). The fluorescent signal was quantified by flow cytometry (LSRFortessa flow cytometer, BD Biosciences) and analyzed using FlowJo (flow cytometry analysis software, BD Biosciences). The geometric mean of the eGFP and mCherry fluorescent signal for round and mCherry-positive cells was calculated. GFP expression was normalized to mCherry signal and drug treatments were compared to DMSO controls.

BRD4BD2 [3] = target: T2, BRD4BD2; experiment: BRD4BD2-eGFP and mCherry flow reporter degradation assay, DCAF16 KO K562 cells
Text: In order to investigate the degradation of BRD4 by GNE011 and related analogs, we used a fluorescent stability reporter assay reported previously (Fig. 2A) [17]. This assay involves the co-expression of mCherry with BRD4BD1/2 fused to an enhanced green fluorescent protein (eGFP) tag, and the subsequent fluorescence measurement of BRD4BD1/2-eGFP normalized to mCherry as a readout for BRD4BD1/2 degradation. It allows for a quantitative, rapid, and facile screening of several MGDs, in a dose-and time-dependent manner. […] Thus, the BRD4BD2 stability system was used to test all subsequent GNE011 analogs in wild type and DCAF16−/− cells.
Lentivirus containing sgRNA was transduced to 2 × 10^6 of K562-Cas9 cells at 10% volume ratio by spin infection. FACS sorting was performed to enrich BFP+ cells one week after infection. […] Clonal sgDCAF16-expressing K562-Cas9 cells were isolated after one month of expansion, and the genomic sequences were validated via deep sequencing of PCR amplicons targeting sgDCAF16 cutting sites (MGH CCIB DNA Core Service).
as §5

BRD4 [4] = target: T3, BRD4 (Homo sapiens, UniProt O60885); experiment: Western blot of BRD4 degradation, wild-type K562 cells; format: cell-based; design: an 11 amino acid peptide knock-in tag to a protein-of-interest using CRISPR insertion; endogenous in cells; conditions: wild-type K562, 1 μM, 16 h
Experimental: (§1) Western blotting was used to determine the degradation potencies of the covalent BRD4 degraders.
(§2) Cells were washed with PBS and lysed in RIPA lysis buffer (Thermo Fisher Scientific) with Halt Protease Inhibitor Cocktail (Thermo Fisher Scientific) and Benzonase (Sigma-Aldrich) for 20 min on ice. The insoluble fraction was removed by centrifugation, the protein concentration was quantified using a BCA protein assay kit (Thermo Fisher Scientific), and an equal amount of lysate was run on SDS–PAGE 4–12% Bis–Tris Protein Gels (Thermo Fisher Scientific) and then transferred to nitrocellulose membrane with a XCell II Blot Module Wet Tank Transfer System (Thermo Fisher Scientific). Membranes were blocked in Intercept (PBS) Blocking Buffer (LI-COR Biosciences) and incubated with primary antibodies overnight at 4 °C. The membranes were then washed in Tris-buffered saline with Tween-20 (TBS-T), incubated for 1 h with secondary IRDye-conjugated antibodies (LI-COR Biosciences) and washed three times in TBS-T for 5 min before near-infrared western blot detection on an Odyssey Imaging System (LI-COR Biosciences).

BRD4 [5] = target: T3, BRD4; experiment: Western blot of BRD4 degradation, DCAF16 KO K562 cells; format: cell-based; design: an 11 amino acid peptide knock-in tag to a protein-of-interest using CRISPR insertion; endogenous in cells; conditions: DCAF16 KO K562, 1 μM, 16 h
Experimental: as §1, §2

BRD4 [6] = target: T3, BRD4; experiment: Washout experiment, Western blot of BRD4 degradation in K562 cells; format: cell-based; design: an 11 amino acid peptide knock-in tag to a protein-of-interest using CRISPR insertion; endogenous in cells; conditions: K562, 1 μM; for BRD4 degradation after washout compared to no washout (in words): 4 h treatment, 20 h compound-free vs 24 h no washout
Experimental: This experiment involves cell treatment and incubation with a ‘covalent’ compound, followed by a wash-step where the cells are washed and resuspended in compound-free cell media.
Cells were washed with PBS and lysed in RIPA lysis buffer (Thermo Fisher Scientific) with Halt Protease Inhibitor Cocktail (Thermo Fisher Scientific) and Benzonase (Sigma-Aldrich) for 20 min on ice. […] Membranes were blocked in Intercept (PBS) Blocking Buffer (LI-COR Biosciences) and incubated with primary antibodies overnight at 4 °C. The membranes were then washed in Tris-buffered saline with Tween-20 (TBS-T), incubated for 1 h with secondary IRDye-conjugated antibodies (LI-COR Biosciences) and washed three times in TBS-T for 5 min before near-infrared western blot detection on an Odyssey Imaging System (LI-COR Biosciences).

BRD4 [7] = target: T3, BRD4; experiment: BRD4-HiBiT assay, WT JURKAT cells; format: cell-based; design: an 11 amino acid peptide knock-in tag to a protein-of-interest using CRISPR insertion; endogenous in cells; host or cells: JURKAT, HiBiT-edited (wild type or DCAF16 knockout); conditions: 6 h; for BRD4 degradation: at <100 nM
Experimental: (§3) Thereafter, we sought to characterize the BRD4 cellular degradation potencies in a dose-dependent manner at a shorter time point to minimize secondary effects. This was performed using the bioluminescent HiBiT-BRD4 assay, which consists of an 11 amino acid peptide knock-in tag to a protein-of-interest using CRISPR insertion. A complementary polypeptide (LgBiT) detects and interacts with all HiBiT tagged proteins, thereby reconstituting a luminescent NanoBiT enzyme, that can be quantified by its bioluminescence. WT and DCAF16 KO JURKAT cell lines expressing the BRD4-HiBiT system were generated to quantify dose-dependent BRD4 degradation after 6 h incubation (Fig. 4C).
(§4) After 6 h, the plates were subjected to Nano-Glo HiBiT Lytic detection system (Promega, #N3040) as described in manufacturer's manual. The assays were performed in biological triplicate. DC50 values were determined using a non-linear regression curve fit in GraphPad PRISM 9.5.1.

BRD4 [8] = target: T3, BRD4; experiment: BRD4-HiBiT assay, DCAF16 KO JURKAT cells; format: cell-based; design: an 11 amino acid peptide knock-in tag to a protein-of-interest using CRISPR insertion; endogenous in cells; host or cells: JURKAT, HiBiT-edited (wild type or DCAF16 knockout); conditions: 6 h
Experimental: as §3, §4

BRD4BD2 [9] = target: T2, BRD4BD2; experiment: BRD4 AlphaScreen competition assay (JQ1-biotin displacement), BRD4BD2; format: binding; conditions: read-out: IC50 BRD4BD2
[10] = GSH stability (glutathione reactivity) assay by LC-MS/MS; format: physicochemical; conditions: phosphate buffered saline (PBS) without glutathione, extrapolated from 240 min assay

Row | SMILES | IC50 (BRD4BD1) [nM] | TR-FRETmax (520 nm/490 nm ratio) [1] | incubation time of saturation / maximum TR-FRET signal [1] [h] | half-life (glutathione) [h] | increase in degradation potency in comparison to GNE011 (BRD4BD2 [2]; K562 cells) | Dmax (BRD4BD2 [2]) [%] | DC50 (BRD4BD2 [2]; K562 cells, 16 h incubation) [nM] | BRD4BD2 degradation activity in DCAF16 knockout cells (in words) (BRD4BD2 [3]) | BRD4 degradation by Western blot (in words) (BRD4 [4]) | BRD4 degradation by Western blot in DCAF16 KO (in words) (BRD4 [5]) | BRD4 degradation after washout compared to no washout (in words) (BRD4 [6]) | BRD4 degradation (in words) (BRD4 [7]) | BRD4 degradation (BRD4 [7]) [%] | BRD4 degradation in DCAF16 KO (in words) (BRD4 [8]) | IC50 (BRD4BD2 [9]) [nM] | half-life [10] [h] | maximal degradation (Dmax/16h) of BRD4BD2 (BRD4BD2 [2]; K562 cells, 16 h incubation) [%] | BRD4BD2-DCAF16 ternary complex formation / DCAF16 recruitment (in words) ([1]; time-dependent TR-FRET) | DCAF16 dependent BRD4BD2 degradation (in words) (BRD4BD2 [2]; K562 cells, 16 h incubation) | BRD4 degradation without washout (in words) (BRD4 [6]; 24 h no washout)
1 | C=CS(=O)(=O)Nc1ccc(C2=N[C@@H](CC(=O)OC(C)(C)C)c3nnc(C)n3-c3sc(C)c(C)c32)cc1 [MMH2, tert-butyl (S)-2-(2,3,9-trimethyl-4-(4-(vinylsulfonamido)phenyl)-6H-thieno[3,2-f][1,2,4]triazolo[4,3-a][1,4]diazepin-6-yl)acetate] | 48.6 | 3.75 | 1 | > 12.5 | ~1000 fold | 95 | 1 | almost entirely ablated | nearly complete BRD4 degradation | completely rescued by DCAF16 KO | no or minimal difference | noticeable BRD4 degradation | > 90 | completely rescued by DCAF16 KO | – | – | – | – | – | –
2 | Cc1sc2c(c1C)C(c1ccc(C#CCN)cc1)=N[C@@H](CC(=O)OC(C)(C)C)c1nnc(C)n1-2 [GNE011, tert-butyl (S)-2-(4-(4-(3-aminoprop-1-yn-1-yl)phenyl)-2,3,9-trimethyl-6H-thieno[3,2-f][1,2,4]triazolo[4,3-a][1,4]diazepin-6-yl)acetate, reference compound] | 11.2 | 0.18 | – | 11.3 | – | ~50 | – | – | moderate degradation | – | nearly a complete rescue | – | – | – | 7.79 | > 12.5 | 49 | – | – | –
3 | C=CC(=O)Nc1ccc(C2=N[C@@H](CC(=O)OC(C)(C)C)c3nnc(C)n3-c3sc(C)c(C)c32)cc1 [MMH1, tert-butyl (S)-2-(4-(4-acrylamidophenyl)-2,3,9-trimethyl-6H-thieno[3,2-f][1,2,4]triazolo[4,3-a][1,4]diazepin-6-yl)acetate] | 17.7 | 1.78 | 24 | 9.53 | ~ 3333 fold | 95 | 0.3 | almost entirely ablated | nearly complete BRD4 degradation | completely rescued by DCAF16 KO | no or minimal difference | noticeable BRD4 degradation | > 90 | completely rescued by DCAF16 KO | 15.5 | – | – | – | – | –
4 | Cc1sc2c(c1C)C(c1ccc(/C=C/C(N)=O)cc1)=N[C@@H](CC(=O)OC(C)(C)C)c1nnc(C)n1-2 [MMH271, tert-butyl (S,E)-2-(4-(4-(3-amino-3-oxoprop-1-en-1-yl)phenyl)-2,3,9-trimethyl-6H-thieno[3,2-f][1,2,4]triazolo[4,3-a][1,4]diazepin-6-yl)acetate] | 8.08 | 0.14 | – | > 12.5 | – | – | – | – | – | – | – | – | – | – | 7.58 | > 12.5 | – | no significant DCAF16 recruitment | almost no DCAF16 dependent BRD4BD2 degradation | showed BRD4 degradation in 24 h no washout experiments
